Test results as given in the NIST ThermoML archive (doi:10.1021/je900596d).

Conditions: for mass density: Vibrating tube method

FC(F)=C(F)C(F)(F)F [hexafluoropropene]
Conditions | mass density [kg/m3] | vapor or sublimation pressure [kPa]
355.18 K, 9543 kPa, Liquid | 1138.93 | –
355.18 K, 9592.9 kPa, Liquid | 1139.78 | –
355.18 K, 9645.5 kPa, Liquid | 1140.58 | –
355.18 K, 9695.7 kPa, Liquid | 1141.39 | –
355.18 K, 9747.1 kPa, Liquid | 1142.23 | –
355.18 K, 9796.2 kPa, Liquid | 1143.06 | –
355.18 K, 9846.2 kPa, Liquid | 1143.79 | –
355.18 K, 9896.5 kPa, Liquid | 1144.79 | –
355.18 K, 9947.2 kPa, Liquid | 1145.37 | –
355.18 K, 9998.1 kPa, Liquid | 1146.19 | –
355.24 K, Liquid, Closed cell (Static) method | – | 2903
355.27 K, 1.7 kPa, Fluid (supercritical or subcritical phases) | 0.1 | –
355.27 K, 2.5 kPa, Fluid (supercritical or subcritical phases) | 0.14 | –
355.27 K, 3.1 kPa, Fluid (supercritical or subcritical phases) | 0.19 | –
355.27 K, 3.6 kPa, Fluid (supercritical or subcritical phases) | 0.23 | –
355.27 K, 4.8 kPa, Fluid (supercritical or subcritical phases) | 0.28 | –
355.27 K, 5.8 kPa, Fluid (supercritical or subcritical phases) | 0.37 | –
355.27 K, 6.4 kPa, Fluid (supercritical or subcritical phases) | 0.38 | –
355.27 K, 7.6 kPa, Fluid (supercritical or subcritical phases) | 0.44 | –
355.27 K, 8.8 kPa, Fluid (supercritical or subcritical phases) | 0.47 | –
355.27 K, 9.4 kPa, Fluid (supercritical or subcritical phases) | 0.5 | –
355.27 K, 10 kPa, Fluid (supercritical or subcritical phases) | 0.52 | –
355.27 K, 11.3 kPa, Fluid (supercritical or subcritical phases) | 0.61 | –
355.27 K, 12.5 kPa, Fluid (supercritical or subcritical phases) | 0.64 | –
355.27 K, 13.7 kPa, Fluid (supercritical or subcritical phases) | 0.67 | –
355.27 K, 15 kPa, Fluid (supercritical or subcritical phases) | 0.66 | –
355.27 K, 16 kPa, Fluid (supercritical or subcritical phases) | 0.83 | –
355.27 K, 18.5 kPa, Fluid (supercritical or subcritical phases) | 0.93 | –
355.27 K, 19.9 kPa, Fluid (supercritical or subcritical phases) | 1.04 | –
355.27 K, 21.2 kPa, Fluid (supercritical or subcritical phases) | 1.09 | –
355.27 K, 22.2 kPa, Fluid (supercritical or subcritical phases) | 1.15 | –
355.27 K, 23.4 kPa, Fluid (supercritical or subcritical phases) | 1.24 | –
355.27 K, 24.5 kPa, Fluid (supercritical or subcritical phases) | 1.28 | –
355.27 K, 25.7 kPa, Fluid (supercritical or subcritical phases) | 1.37 | –
355.27 K, 26.7 kPa, Fluid (supercritical or subcritical phases) | 1.39 | –
355.27 K, 27.9 kPa, Fluid (supercritical or subcritical phases) | 1.42 | –
355.27 K, 29.2 kPa, Fluid (supercritical or subcritical phases) | 1.46 | –
355.27 K, 30.3 kPa, Fluid (supercritical or subcritical phases) | 1.62 | –
355.27 K, 31.3 kPa, Fluid (supercritical or subcritical phases) | 1.64 | –
355.27 K, 32.3 kPa, Fluid (supercritical or subcritical phases) | 1.71 | –
355.27 K, 34.6 kPa, Fluid (supercritical or subcritical phases) | 1.82 | –
355.27 K, 37.4 kPa, Fluid (supercritical or subcritical phases) | 1.95 | –
355.27 K, 41.7 kPa, Fluid (supercritical or subcritical phases) | 2.14 | –
355.27 K, 47.8 kPa, Fluid (supercritical or subcritical phases) | 2.49 | –
355.27 K, 53.6 kPa, Fluid (supercritical or subcritical phases) | 2.8 | –
355.27 K, 58 kPa, Fluid (supercritical or subcritical phases) | 3.03 | –
355.27 K, 62.5 kPa, Fluid (supercritical or subcritical phases) | 3.28 | –
355.27 K, 67.1 kPa, Fluid (supercritical or subcritical phases) | 3.54 | –
355.27 K, 71.8 kPa, Fluid (supercritical or subcritical phases) | 3.72 | –
355.27 K, 76 kPa, Fluid (supercritical or subcritical phases) | 4.09 | –
355.27 K, 80.2 kPa, Fluid (supercritical or subcritical phases) | 4.21 | –
355.27 K, 84.7 kPa, Fluid (supercritical or subcritical phases) | 4.42 | –
355.27 K, 89.7 kPa, Fluid (supercritical or subcritical phases) | 4.7 | –
355.27 K, 94.5 kPa, Fluid (supercritical or subcritical phases) | 4.96 | –
355.27 K, 99.2 kPa, Fluid (supercritical or subcritical phases) | 5.14 | –
355.27 K, 108.4 kPa, Fluid (supercritical or subcritical phases) | 5.69 | –
355.27 K, 121.7 kPa, Fluid (supercritical or subcritical phases) | 6.32 | –
355.27 K, 136.3 kPa, Fluid (supercritical or subcritical phases) | 7.14 | –
355.27 K, 150.1 kPa, Fluid (supercritical or subcritical phases) | 7.91 | –
355.27 K, 175.9 kPa, Fluid (supercritical or subcritical phases) | 9.29 | –
355.27 K, 189 kPa, Fluid (supercritical or subcritical phases) | 9.98 | –
355.27 K, 202.9 kPa, Fluid (supercritical or subcritical phases) | 10.67 | –
355.27 K, 215.8 kPa, Fluid (supercritical or subcritical phases) | 11.37 | –
355.27 K, 229.6 kPa, Fluid (supercritical or subcritical phases) | 12.15 | –
355.27 K, 243.8 kPa, Fluid (supercritical or subcritical phases) | 12.89 | –
355.27 K, 256.5 kPa, Fluid (supercritical or subcritical phases) | 13.54 | –
355.27 K, 269.4 kPa, Fluid (supercritical or subcritical phases) | 14.27 | –
355.27 K, 282.8 kPa, Fluid (supercritical or subcritical phases) | 15.02 | –
355.27 K, 296.5 kPa, Fluid (supercritical or subcritical phases) | 15.74 | –
355.27 K, 310.2 kPa, Fluid (supercritical or subcritical phases) | 16.52 | –
355.27 K, 323.9 kPa, Fluid (supercritical or subcritical phases) | 17.3 | –
355.27 K, 337.3 kPa, Fluid (supercritical or subcritical phases) | 18.03 | –
355.27 K, 350.9 kPa, Fluid (supercritical or subcritical phases) | 18.72 | –
355.27 K, 364 kPa, Fluid (supercritical or subcritical phases) | 19.44 | –
355.27 K, 377.5 kPa, Fluid (supercritical or subcritical phases) | 20.18 | –
355.27 K, 390.9 kPa, Fluid (supercritical or subcritical phases) | 20.91 | –
355.27 K, 410.7 kPa, Fluid (supercritical or subcritical phases) | 22.1 | –
355.27 K, 423.7 kPa, Fluid (supercritical or subcritical phases) | 22.78 | –
355.27 K, 436.7 kPa, Fluid (supercritical or subcritical phases) | 23.55 | –
355.27 K, 449.9 kPa, Fluid (supercritical or subcritical phases) | 24.26 | –
355.27 K, 463 kPa, Fluid (supercritical or subcritical phases) | 25.02 | –
355.27 K, 475.5 kPa, Fluid (supercritical or subcritical phases) | 25.74 | –
355.27 K, 489.9 kPa, Fluid (supercritical or subcritical phases) | 26.57 | –
355.27 K, 511.2 kPa, Fluid (supercritical or subcritical phases) | 27.76 | –
355.27 K, 534.4 kPa, Fluid (supercritical or subcritical phases) | 29.14 | –
355.27 K, 558.1 kPa, Fluid (supercritical or subcritical phases) | 30.53 | –
355.27 K, 570.3 kPa, Fluid (supercritical or subcritical phases) | 31.19 | –
355.27 K, 593.4 kPa, Fluid (supercritical or subcritical phases) | 32.6 | –
355.27 K, 605.4 kPa, Fluid (supercritical or subcritical phases) | 33.29 | –
355.27 K, 629.1 kPa, Fluid (supercritical or subcritical phases) | 34.75 | –
355.27 K, 652.5 kPa, Fluid (supercritical or subcritical phases) | 36.04 | –
355.27 K, 675.6 kPa, Fluid (supercritical or subcritical phases) | 37.5 | –
355.27 K, 698.5 kPa, Fluid (supercritical or subcritical phases) | 38.93 | –
355.27 K, 710.6 kPa, Fluid (supercritical or subcritical phases) | 39.6 | –
355.27 K, 733.2 kPa, Fluid (supercritical or subcritical phases) | 40.98 | –
355.27 K, 755.9 kPa, Fluid (supercritical or subcritical phases) | 42.45 | –
355.27 K, 778.4 kPa, Fluid (supercritical or subcritical phases) | 43.82 | –
355.27 K, 800.7 kPa, Fluid (supercritical or subcritical phases) | 45.25 | –
355.27 K, 822.7 kPa, Fluid (supercritical or subcritical phases) | 46.65 | –
355.27 K, 844.7 kPa, Fluid (supercritical or subcritical phases) | 48.08 | –
355.27 K, 866.4 kPa, Fluid (supercritical or subcritical phases) | 49.39 | –
355.27 K, 887.6 kPa, Fluid (supercritical or subcritical phases) | 50.79 | –
355.27 K, 909.3 kPa, Fluid (supercritical or subcritical phases) | 52.17 | –
355.27 K, 921.7 kPa, Fluid (supercritical or subcritical phases) | 53.01 | –
355.27 K, 942.8 kPa, Fluid (supercritical or subcritical phases) | 54.34 | –
355.27 K, 963 kPa, Fluid (supercritical or subcritical phases) | 55.68 | –
355.27 K, 985.5 kPa, Fluid (supercritical or subcritical phases) | 57.29 | –
355.27 K, 1007.7 kPa, Fluid (supercritical or subcritical phases) | 58.71 | –
355.27 K, 1053.4 kPa, Fluid (supercritical or subcritical phases) | 61.79 | –
355.27 K, 1076.3 kPa, Fluid (supercritical or subcritical phases) | 63.38 | –
355.27 K, 1097.4 kPa, Fluid (supercritical or subcritical phases) | 64.83 | –
355.27 K, 1119.1 kPa, Fluid (supercritical or subcritical phases) | 66.35 | –
355.27 K, 1140.9 kPa, Fluid (supercritical or subcritical phases) | 67.89 | –
355.27 K, 1162.7 kPa, Fluid (supercritical or subcritical phases) | 69.42 | –
355.27 K, 1184.6 kPa, Fluid (supercritical or subcritical phases) | 70.94 | –
355.27 K, 1205.7 kPa, Fluid (supercritical or subcritical phases) | 72.55 | –
355.27 K, 1226.6 kPa, Fluid (supercritical or subcritical phases) | 74.03 | –
355.27 K, 1248.5 kPa, Fluid (supercritical or subcritical phases) | 75.63 | –
355.27 K, 1268.8 kPa, Fluid (supercritical or subcritical phases) | 77.12 | –
355.27 K, 1291.7 kPa, Fluid (supercritical or subcritical phases) | 78.82 | –
355.27 K, 1314.5 kPa, Fluid (supercritical or subcritical phases) | 80.53 | –
355.27 K, 1336.6 kPa, Fluid (supercritical or subcritical phases) | 82.25 | –
355.27 K, 1358.9 kPa, Fluid (supercritical or subcritical phases) | 83.95 | –
355.27 K, 1380.8 kPa, Fluid (supercritical or subcritical phases) | 85.69 | –
355.27 K, 1401.7 kPa, Fluid (supercritical or subcritical phases) | 87.28 | –
355.27 K, 1423 kPa, Fluid (supercritical or subcritical phases) | 89.04 | –
355.27 K, 1445 kPa, Fluid (supercritical or subcritical phases) | 90.76 | –
355.27 K, 1465.4 kPa, Fluid (supercritical or subcritical phases) | 92.28 | –
355.27 K, 1486.6 kPa, Fluid (supercritical or subcritical phases) | 94.07 | –
355.27 K, 1509.1 kPa, Fluid (supercritical or subcritical phases) | 95.9 | –
355.27 K, 1531 kPa, Fluid (supercritical or subcritical phases) | 97.69 | –
355.27 K, 1552.1 kPa, Fluid (supercritical or subcritical phases) | 99.45 | –
355.27 K, 1573.2 kPa, Fluid (supercritical or subcritical phases) | 101.27 | –
